Laboratory results published in the NIST ThermoML archive (doi:10.1016/j.tca.2015.06.017).

Experiment: xn = mol fraction of the nth substance listed
Conditions: Liquid, Vibrating tube method

CCC(C)Cl (configuration not stated) [2-chlorobutane] + CCCCCCC
mass density [kg/m3]
Conditions | 313.15 K | 323.15 K
100 kPa, x2 = 0.0524 | – | 825.09
100 kPa, x2 = 0.1018 | – | 813.02
100 kPa, x2 = 0.1968 | – | 791.28
100 kPa, x2 = 0.3006 | – | 769.26
100 kPa, x2 = 0.4029 | – | 749.24
100 kPa, x2 = 0.5017 | – | 731.3
100 kPa, x2 = 0.6008 | – | 714.64
100 kPa, x2 = 0.7023 | – | 698.73
100 kPa, x2 = 0.7977 | – | 684.8
100 kPa, x2 = 0.8986 | – | 671.19
100 kPa, x2 = 0.952 | – | 664.27
2000 kPa, x2 = 0.0524 | – | 827.83
2000 kPa, x2 = 0.1018 | – | 815.67
2000 kPa, x2 = 0.1968 | – | 793.94
2000 kPa, x2 = 0.3006 | – | 771.89
2000 kPa, x2 = 0.4029 | – | 751.76
2000 kPa, x2 = 0.5017 | – | 733.83
2000 kPa, x2 = 0.6008 | – | 717.08
2000 kPa, x2 = 0.7023 | – | 701.07
2000 kPa, x2 = 0.7977 | – | 687.1
2000 kPa, x2 = 0.8986 | – | 673.45
2000 kPa, x2 = 0.952 | – | 666.5
5000 kPa, x2 = 0.0524 | – | 831.91
5000 kPa, x2 = 0.1018 | – | 819.82
5000 kPa, x2 = 0.1968 | – | 797.9
5000 kPa, x2 = 0.3006 | – | 775.73
5000 kPa, x2 = 0.4029 | – | 755.62
5000 kPa, x2 = 0.5017 | – | 737.6
5000 kPa, x2 = 0.6008 | – | 720.78
5000 kPa, x2 = 0.7023 | – | 704.73
5000 kPa, x2 = 0.7977 | – | 690.71
5000 kPa, x2 = 0.8986 | – | 677.02
5000 kPa, x2 = 0.952 | – | 670.04
7000 kPa, x2 = 0.0524 | – | 834.54
7000 kPa, x2 = 0.1018 | – | 822.46
7000 kPa, x2 = 0.1968 | – | 800.49
7000 kPa, x2 = 0.3006 | – | 778.37
7000 kPa, x2 = 0.4029 | – | 758.11
7000 kPa, x2 = 0.5017 | – | 740.05
7000 kPa, x2 = 0.6008 | – | 723.19
7000 kPa, x2 = 0.7023 | – | 707.1
7000 kPa, x2 = 0.7977 | – | 693.06
7000 kPa, x2 = 0.8986 | – | 679.34
7000 kPa, x2 = 0.952 | – | 672.34
10000 kPa, x2 = 0.0524 | – | 838.27
10000 kPa, x2 = 0.1018 | – | 826.08
10000 kPa, x2 = 0.1968 | – | 804.11
10000 kPa, x2 = 0.3006 | – | 781.87
10000 kPa, x2 = 0.4029 | – | 761.62
10000 kPa, x2 = 0.5017 | – | 743.56
10000 kPa, x2 = 0.6008 | – | 726.61
10000 kPa, x2 = 0.7023 | – | 710.43
10000 kPa, x2 = 0.7977 | – | 696.28
10000 kPa, x2 = 0.8986 | – | 682.48
10000 kPa, x2 = 0.952 | – | 675.45
20000 kPa, x2 = 0.0524 | – | 849.8
20000 kPa, x2 = 0.1018 | – | 837.53
20000 kPa, x2 = 0.1968 | – | 815.4
20000 kPa, x2 = 0.3006 | – | 792.88
20000 kPa, x2 = 0.4029 | – | 772.5
20000 kPa, x2 = 0.5017 | 762.72 | 754.11
20000 kPa, x2 = 0.6008 | 745.36 | 737
20000 kPa, x2 = 0.7023 | 728.79 | 720.73
20000 kPa, x2 = 0.7977 | 714.29 | 706.35
20000 kPa, x2 = 0.8986 | 699.96 | 692.38
20000 kPa, x2 = 0.952 | 692.74 | 685.27
30000 kPa, x2 = 0.0524 | 869.48 | 860.04
30000 kPa, x2 = 0.1018 | 856.99 | 847.72
30000 kPa, x2 = 0.1968 | 834.35 | 825.47
30000 kPa, x2 = 0.3006 | 811.43 | 802.73
30000 kPa, x2 = 0.4029 | 790.51 | 782.02
30000 kPa, x2 = 0.5017 | 771.71 | 763.53
30000 kPa, x2 = 0.6008 | 754.16 | 746.23
30000 kPa, x2 = 0.7023 | 737.41 | 729.67
30000 kPa, x2 = 0.7977 | 722.74 | 715.26
30000 kPa, x2 = 0.8986 | 708.23 | 700.97
30000 kPa, x2 = 0.952 | 700.93 | 693.82
40000 kPa, x2 = 0.0524 | 878.27 | 869.34
40000 kPa, x2 = 0.1018 | 865.7 | 856.96
40000 kPa, x2 = 0.1968 | 842.91 | 834.4
40000 kPa, x2 = 0.3006 | 819.81 | 811.6
40000 kPa, x2 = 0.4029 | 798.72 | 790.72
40000 kPa, x2 = 0.5017 | 779.77 | 772.1
40000 kPa, x2 = 0.6008 | 762.09 | 754.63
40000 kPa, x2 = 0.7023 | 745.16 | 737.89
40000 kPa, x2 = 0.7977 | 730.38 | 723.24
40000 kPa, x2 = 0.8986 | 715.74 | 708.82
40000 kPa, x2 = 0.952 | 708.38 | 701.63
50000 kPa, x2 = 0.0524 | 886.46 | 877.82
50000 kPa, x2 = 0.1018 | 873.81 | 865.47
50000 kPa, x2 = 0.1968 | 850.85 | 842.71
50000 kPa, x2 = 0.3006 | 827.58 | 819.72
50000 kPa, x2 = 0.4029 | 806.37 | 798.76
50000 kPa, x2 = 0.5017 | 787.33 | 779.9
50000 kPa, x2 = 0.6008 | 769.48 | 762.28
50000 kPa, x2 = 0.7023 | 752.43 | 745.43
50000 kPa, x2 = 0.7977 | 737.47 | 730.63
50000 kPa, x2 = 0.8986 | 722.77 | 716.08
50000 kPa, x2 = 0.952 | 715.34 | 708.79
60000 kPa, x2 = 0.0524 | 894.03 | 885.83
60000 kPa, x2 = 0.1018 | 881.29 | 873.29
60000 kPa, x2 = 0.1968 | 858.17 | 850.37
60000 kPa, x2 = 0.3006 | 834.83 | 827.3
60000 kPa, x2 = 0.4029 | 813.47 | 806.2
60000 kPa, x2 = 0.5017 | 794.34 | 787.21
60000 kPa, x2 = 0.6008 | 776.43 | 769.46
60000 kPa, x2 = 0.7023 | 759.35 | 752.51
60000 kPa, x2 = 0.7977 | 744.21 | 737.59
60000 kPa, x2 = 0.8986 | 729.29 | 722.89
60000 kPa, x2 = 0.952 | 721.82 | 715.52
65000 kPa, x2 = 0.0524 | 897.67 | 889.59
65000 kPa, x2 = 0.1018 | 884.92 | 877.02
65000 kPa, x2 = 0.1968 | 861.74 | 854.06
65000 kPa, x2 = 0.3006 | 838.38 | 830.95
65000 kPa, x2 = 0.4029 | 816.9 | 809.85
65000 kPa, x2 = 0.5017 | 797.7 | 790.81
65000 kPa, x2 = 0.6008 | 779.7 | 772.98
65000 kPa, x2 = 0.7023 | 762.47 | 755.89
65000 kPa, x2 = 0.7977 | 747.31 | 740.95
65000 kPa, x2 = 0.8986 | 732.32 | 726.04
65000 kPa, x2 = 0.952 | 724.77 | 718.69
